Experimental data reported in ChEMBL document CHEMBL4007418, “Application of Off-Rate Screening in the Identification of Novel Pan-Isoform Inhibitors of Pyruvate Dehydrogenase Kinase” (J Med Chem, 2017).

Tests used:
[1] = molecular target: T1, [Pyruvate dehydrogenase (acetyl-transferring)] kinase isozyme 1, mitochondrial (Homo sapiens, UniProt Q15118); test: Inhibition of fluorescein-labelled VER160364 binding to PDHK1 (unknown origin) after 90 mins by fluorescence polarization assay
[2] = test system: PC-3; test: Antiproliferative activity against human PC3 cells after 96 hrs by sulphorhodamine B assay; type: functional; conditions: PC-3, 96 h
[3] = molecular target: T1, [Pyruvate dehydrogenase (acetyl-transferring)] kinase isozyme 1, mitochondrial; test: Inhibition of PDHK1 in human PC3 cells assessed as decrease in phosphorylation of E1alpha subunit at serine 293 residue after 1 hr by ELISA; type: cell-based
[4] = molecular target: T1, [Pyruvate dehydrogenase (acetyl-transferring)] kinase isozyme 1, mitochondrial; test: Binding affinity to PDHK1 (unknown origin) by surface plasmon resonance method
[5] = molecular target: T1, [Pyruvate dehydrogenase (acetyl-transferring)] kinase isozyme 1, mitochondrial; test: Inhibition of PDHK1 (unknown origin) assessed as decrease in phosphorylation of E1alpha subunit at serine 293 residue after 1 hr by DELFIA
[6] = molecular target: T2, Heat shock protein HSP 90-alpha (Homo sapiens, UniProt P07900); test: Displacement of fluorescein-labelled VER160364 from HSP90A (unknown origin) after 90 mins by fluorescence polarization assay
[7] = molecular target: T1, [Pyruvate dehydrogenase (acetyl-transferring)] kinase isozyme 1, mitochondrial; test: Binding affinity to PDHK1 (unknown origin) by isothermal titration calorimetry
[8] = molecular target: [Pyruvate dehydrogenase (acetyl-transferring)] kinase isozyme 2, mitochondrial (Homo sapiens, UniProt Q15119); test: Inhibition of fluorescein-labelled VER160364 binding to PDHK2 (unknown origin) after 90 mins by fluorescence polarization assay
[9] = molecular target: T2, Heat shock protein HSP 90-alpha; test: Displacement of fluorescein-labelled VER160364 from HSP90A (unknown origin) at 200 uM after 90 mins by fluorescence polarization assay relative to control
[10] = molecular target: T2, Heat shock protein HSP 90-alpha; test: Dissociation rate from HSP90A (unknown origin) by surface plasmon resonance method
[11] = molecular target: T3, [Pyruvate dehydrogenase (acetyl-transferring)] kinase isozyme 4, mitochondrial (Homo sapiens, UniProt Q16654)
T3 sequence (Q16654 whole entry): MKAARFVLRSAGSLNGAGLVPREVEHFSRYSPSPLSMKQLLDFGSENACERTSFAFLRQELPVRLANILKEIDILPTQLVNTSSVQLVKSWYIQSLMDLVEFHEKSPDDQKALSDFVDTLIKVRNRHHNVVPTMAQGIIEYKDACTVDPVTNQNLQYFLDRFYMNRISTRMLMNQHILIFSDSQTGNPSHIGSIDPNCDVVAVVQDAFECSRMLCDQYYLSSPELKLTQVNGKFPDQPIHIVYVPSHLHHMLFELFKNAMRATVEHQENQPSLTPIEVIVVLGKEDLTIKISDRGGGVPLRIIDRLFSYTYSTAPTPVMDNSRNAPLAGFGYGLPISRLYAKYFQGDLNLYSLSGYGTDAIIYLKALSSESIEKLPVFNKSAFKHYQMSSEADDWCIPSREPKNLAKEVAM
Description: Inhibition of PDHK4 (unknown origin) assessed as decrease in phosphorylation of E1alpha subunit at serine 293 residue after 1 hr by DELFIA

[12] = molecular target: T1, [Pyruvate dehydrogenase (acetyl-transferring)] kinase isozyme 1, mitochondrial; test: Inhibition of SUMO-tagged PDHK1 (unknown origin) in presence of [gamma-32P]ATP after 30 mins by SDS-PAGE based phosphor imaging method
[13] = Inhibition of PDHK (unknown origin); set-up: species or system Homo sapiens
[14] = molecular target: [Pyruvate dehydrogenase (acetyl-transferring)] kinase isozyme 3, mitochondrial (Homo sapiens, UniProt Q15120); test: Inhibition of fluorescein-labelled VER160364 binding to PDHK3 (unknown origin) after 90 mins by fluorescence polarization assay
Sequence of [Pyruvate dehydrogenase (acetyl-transferring)] kinase isozyme 3, mitochondrial (Q15120 whole entry): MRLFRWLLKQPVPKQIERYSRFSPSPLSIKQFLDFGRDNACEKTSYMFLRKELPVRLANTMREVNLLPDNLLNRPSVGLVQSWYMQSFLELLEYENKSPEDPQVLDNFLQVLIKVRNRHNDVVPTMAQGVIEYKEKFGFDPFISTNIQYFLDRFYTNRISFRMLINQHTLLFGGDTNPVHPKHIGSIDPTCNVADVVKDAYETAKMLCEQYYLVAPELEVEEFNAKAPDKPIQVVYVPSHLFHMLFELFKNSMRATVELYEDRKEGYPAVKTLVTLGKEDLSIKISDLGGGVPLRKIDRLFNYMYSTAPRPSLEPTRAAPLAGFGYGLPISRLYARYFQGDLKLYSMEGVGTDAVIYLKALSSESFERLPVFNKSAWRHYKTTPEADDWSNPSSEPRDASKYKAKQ

[15] = molecular target: T3, [Pyruvate dehydrogenase (acetyl-transferring)] kinase isozyme 4, mitochondrial; test: Inhibition of fluorescein-labelled VER160364 binding to PDHK4 (unknown origin) after 90 mins by fluorescence polarization assay

T1 sequence (Q15118 whole entry): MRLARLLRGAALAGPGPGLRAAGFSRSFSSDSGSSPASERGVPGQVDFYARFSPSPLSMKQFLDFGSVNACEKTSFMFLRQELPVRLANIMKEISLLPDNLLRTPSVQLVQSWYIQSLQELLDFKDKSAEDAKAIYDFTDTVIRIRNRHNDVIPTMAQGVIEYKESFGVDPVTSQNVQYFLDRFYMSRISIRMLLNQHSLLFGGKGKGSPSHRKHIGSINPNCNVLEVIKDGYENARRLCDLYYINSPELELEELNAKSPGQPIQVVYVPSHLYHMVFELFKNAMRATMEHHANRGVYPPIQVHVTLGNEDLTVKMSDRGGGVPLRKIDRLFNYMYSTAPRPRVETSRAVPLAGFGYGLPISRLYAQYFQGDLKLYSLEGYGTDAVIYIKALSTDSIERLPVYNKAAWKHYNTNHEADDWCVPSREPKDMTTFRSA

| Compound | Ki [1] [µM] | IC50 [3] [µM] | Kd [4] [µM] | IC50 [5] [µM] | Ki [6] [µM] | further results |
| --- | --- | --- | --- | --- | --- | --- |
| Cc1cc2ccccc2nc1-c1ccc2c(c1)CC[C@H](C)N2C(=O)c1ccc(O)cc1O | 0.124 | 2.68 | 0.115 | 0.139 | 10.6 | GI50 [2]: 14 µM; Kd [7]: 0.153 µM |
| CCNC(=O)CN(C(=O)c1ccc(O)cc1O)c1ccc(OC)cc1 |  |  |  |  |  | IC50 [8]: 4.46 µM; Ki [8]: 2.17 µM; inhibition [9]: 74% |
| Cc1cnc(Cl)nc1-c1ccc(N(Cc2ccc(CN3CCCC3)cc2)C(=O)c2ccc(O)cc2O)cc1 | 0.037 | 2.15 | 0.078 | 0.101 | 3.21 | GI50 [2]: 38 µM |
| C[C@H]1CCc2cc(-c3nc(Cl)nc4[nH]ccc34)ccc2N1C(=O)c1ccc(O)cc1O | 0.64 | 1.82 | 0.009 | 0.135 | > 50 | GI50 [2]: 15 µM |
| CN(C)C(=O)c1ccc(S(=O)(=O)c2ccc(NC(=O)[C@@](C)(O)C(F)(F)F)c(Cl)c2)cc1 |  | 0.041 |  |  |  |  |
| Cc1cnc(Cl)nc1-c1ccc2c(c1)CC[C@H](C)N2C(=O)c1ccc(O)cc1O | 0.037 | 2.74 | 0.019 | 0.063 | 1.98 | GI50 [2]: 40 µM; Kd [7]: 0.032 µM |
| CN(C)C(=O)c1ccc(N(C)C(=O)c2ccc(O)cc2O)cc1 |  |  |  |  | 1.23 | IC50 [8]: 0.35 µM; Ki [8]: 0.15 µM; IC50 [6]: 2.97 µM |
| C[C@@H]1CCc2cc(F)ccc2N1C(=O)c1ccc(O)cc1O | 1.17 |  |  |  |  | inhibition [9]: 62%; koff [10]: 0.6 s⁻¹; koff [4]: 0.27 s⁻¹ |
| CC1CCc2cc(F)ccc2N1C(=O)c1ccc(O)cc1O (racemic) | 0.2 |  |  |  | 9.15 | koff [10]: 0.23 s⁻¹; koff [4]: 0.08 s⁻¹ |
| O=S(=O)(c1ccc(O)cc1O)N1Cc2cc(O)cc(O)c2C1 |  |  |  | 2.1 |  | IC50 [11]: 0.84 µM; IC50 [6]: 47 µM |
| Cc1cnc(Cl)nc1-c1ccc2c(c1)CC[C@H](c1cccnc1)N2C(=O)c1ccc(O)cc1O |  | 5.77 | 0.01 | 0.015 | > 50 |  |
| C[C@@H]1CN(C(=O)[C@@](C)(O)C(F)(F)F)[C@@H](C)CN1C(=O)c1ccc(C#N)cc1 |  | 0.066 |  |  |  |  |
| Cc1cnc(Cl)nc1-c1ccc(N(Cc2ccccc2)C(=O)c2ccc(O)cc2O)cc1 | 0.067 | 1.72 | 0.016 | 0.072 | 6.55 | GI50 [2]: > 40 µM; Kd [7]: 0.06 µM |
| CN(C(=O)c1ccc(O)cc1O)c1ccc(C(=O)N2CC(C(=O)O)Oc3ccccc32)cc1 (configuration not stated) | 0.26 |  |  |  | 0.184 |  |
| Cc1cnc(Cl)nc1-c1ccc(N(Cc2ccc(CNC(=O)C(F)F)cc2)C(=O)c2ccc(O)cc2O)cc1 |  |  |  |  | > 100 | GI50 [2]: 26.2 µM |
| C[C@H]1CCc2cc(F)ccc2N1C(=O)c1ccc(O)cc1O | 0.09 |  |  |  | 3.48 | koff [10]: 0.18 s⁻¹; koff [4]: 0.08 s⁻¹ |
| CN(Cc1ccc2nccnc2c1)C(=O)c1ccc(N(Cc2ccccc2)C(=O)c2ccc(O)cc2O)cc1 | 0.026 | 5.65 | 0.001 | 0.0627 | 1.02 |  |
| O=C(c1ccc(O)cc1O)N(Cc1ccccc1)c1ccccc1 | 0.98 |  |  |  |  | koff [10]: 0.14 s⁻¹; koff [4]: 0.26 s⁻¹ |
| C[C@@H]1C[C@H]2O[C@@H]2/C=C\C=C\C(=O)Cc2c(Cl)c(O)cc(O)c2C(=O)O1 [RADICICOL] |  |  |  |  |  | IC50 [12]: 230 µM; IC50 [13]: 1200 µM |
| CCN(CC)CCN(C(=O)c1ccc(O)cc1O)c1ccc(OC)cc1 |  |  |  |  |  | IC50 [8]: 2.78 µM; Ki [8]: 1.33 µM; inhibition [9]: 79% |
| COc1ccc(CN(C)C(=O)c2ccc(N(Cc3ccccc3)C(=O)c3ccc(O)cc3O)cc2)cc1 | 0.241 | 10.6 | 0.01 | 0.201 | > 50 |  |
| C[C@H]1CCc2cc(-c3nc(Cl)nc4ccsc34)ccc2N1C(=O)c1ccc(O)cc1O | 0.467 | 2.78 | 0.01 | 0.198 | 1.78 |  |
| COc1cc2c(cc1OC)C(c1cccnc1)N(C(=O)c1ccc(O)cc1O)CC2 (configuration not stated) |  |  |  |  |  | koff [10]: 0.29 s⁻¹; koff [4]: 0.019 s⁻¹ |
| COc1ccc(N(C)C(=O)c2ccc(O)cc2O)cc1 | 1.93 |  |  |  | 1.38 | IC50 [8]: 2.23 µM; Ki [8]: 1.07 µM; Ki [14]: 0.55 µM; Ki [15]: 1.27 µM; IC50 [6]: 3.02 µM |
| CCNC(=O)c1noc(-c2cc(Cl)c(O)cc2O)c1-c1ccc(CN2CCOCC2)cc1C | 0.136 |  |  |  | 0.032 | koff [10]: 0.001 s⁻¹; koff [4]: 0.014 s⁻¹ |
| C[C@H]1CCc2cc(C(=O)N(C)Cc3ccc4nccnc4c3)ccc2N1C(=O)c1ccc(O)cc1O | 0.016 | 3.01 | 0.006 | 0.036 | 2.51 | GI50 [2]: 30 µM |
